The record followed here is ChEMBL document CHEMBL3351554, “Benzophenone C- and O-glucosides from Cyclopia genistoides (Honeybush) inhibit mammalian α-glucosidase” (2014).

Usually inhibition stands for how much of the control response was suppressed.

For experiment [1], the species on record is Rattus norvegicus. As to the kind of experiment: Inhibition of rat intestinal alpha-glucosidase using 7-O-alpha-D-glucopyranosyl 4-methylumbelliferone preincubated for 15 mins at 100 to 400 uM prior substrate addition measured over 30 mins by fluorescence assay.
The test system of the next experiment is HepG2/C3A. Briefly: Increase in [3H]-2-DOG uptake in human HepG2/C3A cells at 0.001 to 100 uM after 3 hr by liquid scintillation counting relative to vehicle-treated control.
For another experiment, the system named is 3T3-L1. Briefly: Increase in [3H]-2-DOG uptake in mouse 3T3L1 cells at 0.001 to 100 uM after 3 hrs by liquid scintillation counting relative to vehicle-treated control.
Experiment [2] is filed under the species Rattus norvegicus. As to the kind of experiment: Inhibition of rat intestinal alpha-glucosidase using 7-O-alpha-D-glucopyranosyl 4-methylumbelliferone preincubated for 15 mins at 200 uM prior substrate addition measured over 30 mins by fluorescence assay.
A further experiment has as its system L6. As to the kind of experiment: Increase in [3H]-2-DOG uptake in rat L6 cells at 10 uM after 1 hr by liquid scintillation counting relative to vehicle-treated control. The format is functional.
Experiment [3] is filed under the species Rattus norvegicus. As to the kind of experiment: Inhibition of rat intestinal alpha-glucosidase using 7-O-alpha-D-glucopyranosyl 4-methylumbelliferone preincubated for 15 mins at 50 to 200 uM prior substrate addition measured over 30 mins by fluorescence assay.

Calls of active or inactive are those of the source. No cut-off for these calls is given here.

As for `O=C(c1ccc(O)cc1)c1c(O)cc(O)c([C@@H]2O[C@H](CO)[C@@H](O)[C@H](O)[C@H]2O)c1O`, the inhibition result in the experiment filed under Rattus norvegicus [1] is “Active”. Besides, the outcome with HepG2/C3A and in the experiment on 3T3-L1 was Active.

With `O=C(c1ccc(O)cc1)c1c(O)cc(O[C@@H]2O[C@H](CO)[C@@H](O)[C@H](O)[C@H]2O)c([C@@H]2O[C@H](CO)[C@@H](O)[C@H](O)[C@H]2O)c1O`, the inhibition result in the experiment listed under Rattus norvegicus [1] was “Active”. The outcome in the experiment on HepG2/C3A and in the experiment on 3T3-L1 was Active. The compound also came in with an inhibition in the experiment filed under Rattus norvegicus [2] of 43%. The compound also yielded an Activity with L6 of 22%.

Consider `O=C(c1ccc(O)c(O)c1)c1c(O)cc(O)cc1O`, for which the inhibition entry in the experiment listed under Rattus norvegicus [3] is “inactive”.

For the compound `O=C(c1ccc(O)c(O)c1)c1c(O)cc(O)c([C@@H]2O[C@H](CO)[C@@H](O)[C@H](O)[C@H]2O)c1O`, the inhibition in the experiment listed under Rattus norvegicus [2] was found to be 54%.
